Reference: PMC5362750, “Discovery of Potent, Selective, and Orally Bioavailable Small-Molecule Modulators of the Mediator Complex-Associated Kinases CDK8 and CDK19” (Journal of Medicinal Chemistry, 2016)
≈ marks a conversion by molar mass, not a printed value. Read-outs that look alike come from different tables or passages of the source.

How the values were obtained:
[1] = human
[2] = Caco-2 Papp determination; details: human, Caco-2, pH 7.4
In vivo mouse PK = details: female, NMRI, plasma
[3] = system: WNT-dependent signaling, 7dF3 cells (HEK293); assay: 7dF3 luciferase reporter assay; assay type: cell-based, human
[4] = Thermodynamic solubility determination; assay type: physicochemical
[5] = Mouse Clint determination; assay type: in vitro ADME
Protocol: (§1) Mouse, Rat, and Human Clint Determination
(§2) Microsomes (final concentration 0.5 mg/mL), 50 mM phosphate buffer pH 7.4, and compound (final concentration 1 μM) were added to the assay plate and allowed to preincubate for 5 min at 37 °C. The reaction was initiated by the addition of NADPH (final concentration 1.5 mM), and the plate was shaken at 800 rpm at 37 °C. After 0, 5, 10, 20, and 30 min aliquots were taken and the reaction was stopped using cold acetonitrile. The samples were centrifuged at 4000 rpm for 30 min at 4 °C and analyzed by LC–MS/MS. Four test compounds were pooled for analysis. The in vitro intrinsic clearance was calculated from the rate of compound disappearance.

Rat Clint determination = assay type: in vitro ADME; details: pH 7.4; rat microsomes
[6] = Human Clint determination; assay type: in vitro ADME; details: pH 7.4; human microsomes
Protocol: as §1, §2

[7] = Kinetic solubility determination; details: phosphate buffer, pH 7.4, Solubility Kinetic, free base

Cn1cc(-c2ccc(-c3cncc(Cl)c3N3CCC4(CCNC4=O)CC3)cc2)cn1 [Compound 6]
clearance [1]: 0.88 L/h/kg
clearance prediction, iviv from hepatocytes (human): 0.53 L/h/kg
clearance prediction, simple allometry (human): 1.45 L/h/kg
F (human prediction): ∼70%
Vd (human prediction): ∼0.85 L/kg
t1/2 (human prediction): ∼0.70 h
Cl (human prediction, mean of all methods): ∼0.88 L/h/kg
Papp A→B at 2 h, 1 μM [2]: 237 nm/s

O=C1NCCC12CCN(c1c(Cl)cncc1-c1ccc3c(c1)CS(=O)(=O)N3)CC2 [Compound 22]
Vd (In vivo mouse PK; iv, 0.2 mg/kg): 1.19 L/kg
clearance (In vivo mouse PK; iv, 0.2 mg/kg, Cl, 0.2 mg/kg iv): 5.04 L/h/kg
bioavailability (In vivo mouse PK; po, 0.5 mg/kg): 11%
drop in cell-based potency ([3]; 7dF3, compared to 6): 23 fold
Papp A→B at 2 h, 1 μM [2]: 49 nm/s
improvement of thermodynamic aqueous solubility ([4]; compared to 6): 120 fold
solubility at 24 h ([4]; phosphate buffer, pH 7.4, TFA salt, pH 7.4, 37 °C, read-out: Solubility Therm.): 0.759 mg/mL

CC1=NNC(=O)C12CCN(c1c(Cl)cncc1-c1ccc3c(c1)CS(=O)(=O)N3C)CC2 [Compound 49]
improvement in potency in the 7dF3 assay ([3]; compared to 23): 13 fold
Papp A→B at 2 h, 1 μM [2]: 400 nm/s
efflux ratio at 2 h, 1 μM [2]: 4.9

Nc1ncc(-c2ccc3c(N)n[nH]c3c2)c(N2CCC3(CCNC3=O)CC2)c1Cl [Compound 87]
more stable in mouse Clint experiments ([5]; compared to 25): at least 5 fold
Papp A→B at 2 h, 1 μM [2]: 13 nm/s

CC(C)n1ncc2ccc(-c3cnc(N)c(Cl)c3N3CCC4(CCNC4=O)CC3)cc21 [Compound 111]
microsomal CLint at 1 μM ([5]; pH 7.4, mouse microsomes): 202 µL/min/mg
microsomal CLint at 1 μM (Rat Clint determination): 139 µL/min/mg
microsomal CLint at 1 μM [6]: 202 µL/min/mg
solubility kinetic at 120 min [7]: 126 µM (≈ 55.3 µg/mL)
